For assay [1], the target named is T1, maize (Zea mays) class I EPSPS variant TIPG (T102I, P106G), pMON42480 (Zea mays, UniProt O24566, P106G/T102I).
T1 construct: pMON42480
T1 sequence (O24566 1-444 T102I/P106G): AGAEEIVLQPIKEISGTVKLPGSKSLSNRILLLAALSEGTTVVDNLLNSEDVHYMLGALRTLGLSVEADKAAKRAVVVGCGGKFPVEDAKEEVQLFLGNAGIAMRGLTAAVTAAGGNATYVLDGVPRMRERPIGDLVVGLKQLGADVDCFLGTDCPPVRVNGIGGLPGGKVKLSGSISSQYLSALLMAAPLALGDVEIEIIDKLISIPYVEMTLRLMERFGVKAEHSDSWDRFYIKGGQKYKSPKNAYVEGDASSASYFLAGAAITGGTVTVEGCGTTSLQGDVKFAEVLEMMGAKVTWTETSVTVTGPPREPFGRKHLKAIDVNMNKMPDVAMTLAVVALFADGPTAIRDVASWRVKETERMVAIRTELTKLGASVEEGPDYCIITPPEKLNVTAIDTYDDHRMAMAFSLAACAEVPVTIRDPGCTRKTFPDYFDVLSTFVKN
As to the kind of experiment: EPSPS steady-state kinetics, TIPG variant. It is filed as biochemical. The text has this:
(§1) The double variants of the present invention were made using pMON58452 (FIG. 5) as the template. This pMON58452 EPSPS gene template contains the maize EPSPS double variant T102I, P106T (TIPT) that was constructed by mutagenesis of pMON70467 with the mutagenesis primers mEmut-9-U and mEmut-10-L. The various mutagenesis primer sequences were designed and then were synthesized by Invitrogen Corp., Custom Primers and used in combination in a PCR to create the variant EPSPS coding sequences. The PCR was set up in a 50 μl reaction in the following manner: dH2O 38 μl; 2 mM dNTP 1 μL; 10× buffer 5 μL; pMON58452 1 μL (10 ng); primer-U 2 μL; primer-L 2 μL; pfu Turbo enzyme 1 μL. PCR was carried out on a MJ Research PTC-200 thermal cycler using the following program: Step 1—94° C. for 30 seconds; Step 2—94° C. for 30 seconds; Step 3—55° C. for 1 minute; Step 4—68° C. for 14 minute; Step 5—go to step 2, 16 times; Step 6—End. At the end of the PCR, 1 μl of the restriction enzyme DpnI was added to each 50 μl of PCR reaction and the mixture was incubated at 37° C. for 1 hour. […]

For assay [2], the target named is T2, maize (Zea mays) class I EPSPS variant TIPV (T102I, P106V), pMON42482 (Zea mays, UniProt O24566, P106V/T102I).
T2 construct: pMON42482
T2 sequence (O24566 1-444 T102I/P106V): T1 sequence (O24566 1-444 T102I/P106G) with G106V
Nature of the assay: EPSPS steady-state kinetics, TIPV variant. It is filed as biochemical.
Source text: as §1

Changes are numbered by the printed parent chain.

Take `O=C(O)CNCP(=O)(O)O` [glyphosate, N-phosphonomethylglycine]: the Ki is 38.6 µM in assay [1] and 1600 ± 400 µM in assay [2].

A word on the Ki: it is the equilibrium dissociation constant of an inhibitor or competing ligand from its target.
